{
  "source": "paper PMC2928223",
  "about": "(Journal of molecular biology, 2009)",
  "molecular_target": "T1, CgFMNAT (Nakaseomyces glabratus, UniProt Q6FNA9)",
  "T1 sequence (Q6FNA9 1-304)": "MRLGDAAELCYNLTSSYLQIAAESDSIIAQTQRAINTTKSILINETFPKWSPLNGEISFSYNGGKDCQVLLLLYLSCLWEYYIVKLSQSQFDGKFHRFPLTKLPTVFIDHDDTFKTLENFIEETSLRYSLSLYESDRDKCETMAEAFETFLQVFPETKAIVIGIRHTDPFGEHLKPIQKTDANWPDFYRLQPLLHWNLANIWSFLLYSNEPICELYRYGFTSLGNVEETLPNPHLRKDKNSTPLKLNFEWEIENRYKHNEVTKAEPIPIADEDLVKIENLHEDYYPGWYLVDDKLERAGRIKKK",
  "data": [
    {"smiles": "O=P(O)(O)OP(=O)(O)O", "note": "[pyrophosphate]", "values": [
      {"measurement": "X-ray crystal structure of product ternary complex (1.35 Å)", "value": "the densities for both products FAD and pyrophosphate (PPi) are well defined"}
    ]}
  ]
}
